Assay results taken from PMC3849647, “Pharmacokinetics and biodistribution of the cyclin-dependent kinase inhibitor -CR8- in mice” (BMC Pharmacology & Toxicology, 2013).
Where “and” joins values, the source holds several entries; their conditions need not be identical. Equal entries are not always repeated. Where two headings read alike, the source gives them in different places.

What was measured:
[1] = Biodistribution of CR8 to mouse organs after oral administration; type: in vivo, mice; parameters: V2/F: unit not given here; details: for AUC / Beta-HL / V2/F / Cmax: single oral 100 mg/kg; for Tissue/plasma exposure ratio (% AUC organ vs. AUC plasma) / Kp: oral 100 mg/kg, 100 mg/kg; for Kp / Cmax: female, BALB/c, mouse; for Kp: po
Description: CR8 was dissolved in DMSO: 50 mM HCl (10:90 v/v). The first group of mice received i.v. doses of CR8 (50 mg/kg body weight), the second received oral doses of CR8 (100 mg/kg body weight) and three control mice received vehicle alone. […] Supernatants were collected and all samples were frozen at −20°C directly after preparation until further analysis by HPLC. Other organs including liver, spleen, kidneys, brain, adipose tissue and lungs were removed, washed and snap frozen immediately in liquid nitrogen. Bone marrow was flushed from both femurs and mononuclear cells were counted and frozen. The samples were stored at −20°C to avoid any metabolic activity. […] Femurs were removed and cleaned; bone marrow was flushed with 0.3 ml of PBS and single cell suspension was prepared by gentle flushing through needle and syringe. Nucleated cells were counted using Türk solution and bone marrow was stored at −20°C until assay. Parameters including distribution volume of the central compartment, elimination rate constant, plasma maximum concentration and micro constants were estimated. Clearance (Cl) and distribution volume at the steady state were calculated from the primary parameters. The plasma concentration versus time curves (AUC) were calculated from the model derived parameters, and the elimination half-lives were calculated from the slope of the terminal elimination phase. Bone marrow data were derived after adjustment of concentrations to 10^9 cells (= approx. 1 g of tissue). The pharmacokinetic modeling was performed using WinNonlin version 5.2 (Pharsight, USA).

[2] = Pharmacokinetics of CR8 in mouse plasma after oral and i.v. administration (HPLC-UV); type: in vivo, mice
Description: 70 μl plasma was added to 140 μl methanol and vortexed for 15 sec. Samples were centrifuged at 10000 g for 10 minutes, and 50 μl from the supernatant were injected into the HPLC system.
Female BALB/c mice 8–10 weeks old and weighing 18–21 g were obtained from Scanbur, Sollentuna, Sweden. The mice were allowed to acclimatize to their surroundings for one week before starting treatment. The mice were fed pelleted food and water ad libitum.
CR8 was dissolved in DMSO: 50 mM HCl (10:90 v/v). The first group of mice received i.v. doses of CR8 (50 mg/kg body weight), the second received oral doses of CR8 (100 mg/kg body weight) and three control mice received vehicle alone. Three mice were sacrificed at each time point and blood samples were collected by cardiac puncture into heparinized tubes at 10, 20, 30, 60 min, 2, 4, 6, 8 h post administration. Blood samples were centrifuged immediately after collection at 3000 g for 5 min at 4°C and the plasma was prepared as mentioned previously. Supernatants were collected and all samples were frozen at −20°C directly after preparation until further analysis by HPLC. Other organs including liver, spleen, kidneys, brain, adipose tissue and lungs were removed, washed and snap frozen immediately in liquid nitrogen. Bone marrow was flushed from both femurs and mononuclear cells were counted and frozen. The samples were stored at −20°C to avoid any metabolic activity.
Parameters including distribution volume of the central compartment, elimination rate constant, plasma maximum concentration and micro constants were estimated. Clearance (Cl) and distribution volume at the steady state were calculated from the primary parameters. The plasma concentration versus time curves (AUC) were calculated from the model derived parameters, and the elimination half-lives were calculated from the slope of the terminal elimination phase. Bone marrow data were derived after adjustment of concentrations to 10^9 cells (= approx. 1 g of tissue). The pharmacokinetic modeling was performed using WinNonlin version 5.2 (Pharsight, USA).
Oral bioavailability (F) defined as the fraction of the oral administered dose of CR8 that reaches the systemic circulation was calculated according to the following formula:
F=AUCpo∗doseIV/AUCIV∗dosepo

CDK5/p25 = tested on: CDK5/p25; parameters: method as in PMID 18574471; details: cited from earlier work
CDK = tested on: CDK; parameters: method as in PMID 18574471; details: in-vitro; cited from earlier work
casein kinase 1 (CK1) = biological target: casein kinase 1 (CK1); parameters: method as in PMID 18574471; details: cited from earlier work
[3] = Stability of CR8 in plasma quality control samples and solution; type: physicochemical, human
Description: Four quality control samples at concentrations of 0.75, 1.5, 3.5 and 7.0 μg/ml were also prepared in triplicate and stored at room temperature, +4°C and −20°C for stability testing.
The stability of CR8 was determined in plasma samples using concentrations of 0.75, 1.5, 3.5 and 7.0 μg/ml (in triplicate). The samples were kept at room temperature, +4°C and −20°C and analyzed twice weekly for 2 months. Peak areas of all the samples were compared to peak areas obtained at time zero.

tumor cell lines = details: cited from earlier work
[4] = given i.v. at the same dosage; cited from earlier work
[5] = bone marrow vs plasma; cited from earlier work

CC[C@H](CO)Nc1nc(NCc2ccc(-c3ccccn3)cc2)c2ncn(C(C)C)c2n1 [CR8]
AUC ([1]; Adipose tissue): 181 µg·h/g | Beta-HL ([1]; Adipose tissue): 2.40 h | V2/F ([1]; Adipose tissue): 38.2 | AUC ([1]; Bone marrow (10^9 cells = approx. 1 g)): 34 µg·h/g | Beta-HL ([1]; Bone marrow): 1.98 h | V2/F ([1]; Bone marrow): 84.5 | AUC ([1]; Brain): 14 µg·h/g | Beta-HL ([1]; Brain): 2.12 h | V2/F ([1]; Brain): 447.5 | AUC ([1]; Kidney): 145 µg·h/g | Beta-HL ([1]; Kidney): 2.62 h | V2/F ([1]; Kidney): 52.2 | AUC ([1]; Liver): 197 µg·h/g | Beta-HL ([1]; Liver): 2.43 h | V2/F ([1]; Liver): 35.8 | AUC ([1]; Lung): 77 µg·h/g | Beta-HL ([1]; Lung): 2.58 h | V2/F ([1]; Lung): 96.7 | AUC ([1]; Spleen): 40 µg·h/g | Beta-HL ([1]; Spleen): 2.60 h | V2/F ([1]; Spleen): 74.5 | Tissue/plasma exposure ratio (% AUC organ vs. AUC plasma) ([1]; adipose tissue): 180% | Kp ([1]; adipose tissue, adipose tissue, read-out: Tissue/plasma exposure ratio (% AUC organ vs. AUC plasma)): 1.88 | Kp ([1]; bone marrow, bone marrow, concentrations normalized to tissue weight/g, read-out: Tissue/plasma exposure ratio (% AUC organ vs. AUC plasma)): 0.3 | Kp ([1]; brain, brain, read-out: Tissue/plasma exposure ratio (% AUC organ vs. AUC plasma; concentration in brain vs plasma)): 0.15 | Kp ([1]; kidney, kidney, read-out: Tissue/plasma exposure ratio (% AUC organ vs. AUC plasma)): 1.5 | Kp ([1]; liver, liver, read-out: Tissue/plasma exposure ratio (% AUC organ vs. AUC plasma)): 2.05 | Kp ([1]; lung, lung, read-out: Tissue/plasma exposure ratio): 0.8 | Kp ([1]; spleen, spleen, read-out: Tissue/plasma exposure ratio): 0.5 | Cmax ([1]; Adipose tissue): 48700 ng/g | Cmax ([1]; Bone marrow): 10600 ng/g | Cmax ([1]; Brain): 4100 ng/g | Cmax ([1]; Kidney): 36000 ng/g | Cmax ([1]; Liver): 52400 ng/g | Cmax ([1]; Lung): 19300 ng/g | Cmax ([1]; Spleen): 27700 ng/g | Tissue/plasma exposure ratio (% AUC organ vs. AUC plasma) ([1]; liver): 200% | Beta-HL ([2]; Plasma, single oral 100 mg/kg): 3.10 h | V2/F ([2]; Plasma, single oral 100 mg/kg): 21.0 | half-life ([2]; female, BALB/c, mouse, plasma, female BALB/c mice, read-out: Half-life (converted)): ~3 h | AUC ([2]; female, BALB/c, mouse, plasma, iv, 50 mg/kg, plasma, 50 mg/kg intravenously, read-out: AUC): ~45000 ng·h/mL | Cmax ([2]; female, BALB/c, mouse, plasma, iv, 50 mg/kg, plasma, i.v. bolus 50 mg/kg, estimated, read-out: Cmax (maximum reached concentration)): > 100000 ng/mL | AUC ([2]; female, BALB/c, mouse, plasma, iv, 50 mg/kg, plasma, i.v. bolus 50 mg/kg, mice, read-out: AUC (area under time plasma concentration curve)): 44400 ± 3300 ng·h/mL | half-life ([2]; female, BALB/c, mouse, plasma, iv, 50 mg/kg, plasma, i.v. bolus 50 mg/kg, read-out: Tα (first elimination half-life) (converted)): 0.11 ± 0.01 h | half-life ([2]; female, BALB/c, mouse, plasma, iv, 50 mg/kg, plasma, i.v. bolus 50 mg/kg, read-out: Tβ (terminal elimination half-life) (converted)): 2.95 ± 0.11 h | clearance ([2]; female, BALB/c, mouse, plasma, iv, i.v. bolus 50 mg/kg, read-out: CL (clearance) (converted)): 0.383 mL/min | Vd ([2]; female, BALB/c, mouse, plasma, iv, i.v. bolus 50 mg/kg, read-out: Vss (distribution volume at steady state)): 0.044 ± 0.004 L | half-life ([2]; female, BALB/c, mouse, plasma, mice, read-out: Elimination half-life (converted)): ~3 h | bioavailability ([2]; female, BALB/c, mouse, plasma, oral, 100 mg/kg, oral 100 mg/kg vs i.v. 50 mg/kg, F=AUCpo*doseIV/AUCIV*dosepo): ~100% | Tmax ([2]; female, BALB/c, mouse, plasma, oral, 100 mg/kg, mice, read-out: Time of maximum concentrations (converted)): 0.5 h | AUC ([2]; female, BALB/c, mouse, plasma, po, 100 mg/kg, Plasma, single oral 100 mg/kg, read-out: AUC): 96000 ng·h/mL | Cmax ([2]; female, BALB/c, mouse, plasma, po, 100 mg/kg, Plasma, single oral 100 mg/kg, read-out: Cmax): 34300 ng/mL | AUC ([2]; female, BALB/c, mouse, plasma, po, 100 mg/kg, plasma, 100 mg/kg orally, read-out: AUC): ~100000 ng·h/mL | AUC ([2]; female, BALB/c, mouse, plasma, po, 100 mg/kg, plasma, single oral 100 mg/kg, mice, read-out: AUC (area under time plasma concentration curve)): 96300 ± 10500 ng·h/mL | Cmax ([2]; female, BALB/c, mouse, plasma, po, 100 mg/kg, plasma, single oral 100 mg/kg, read-out: Cmax (maximum reached concentration)): 34300 ± 1940 ng/mL | half-life ([2]; female, BALB/c, mouse, plasma, po, 100 mg/kg, plasma, single oral 100 mg/kg, read-out: Tα (first elimination half-life) (converted)): 1.3 ± 0.43 h | half-life ([2]; female, BALB/c, mouse, plasma, po, 100 mg/kg, plasma, single oral 100 mg/kg, read-out: Tβ (terminal elimination half-life) (converted)): 3.1 ± 0.35 h | Cmax after i.v. compared to oral administration ([2]; i.v. 50 mg/kg vs oral 100 mg/kg): 4 fold | CL (clearance) ([2]; single oral 100 mg/kg): 21 ± 2 mL/h | Vss (distribution volume at steady state) ([2]; single oral 100 mg/kg): 21 ± 3 mL | IC50 (CDK5/p25): 120 nM | Potency as CDK inhibitor relative to roscovitine (CDK): 2–4 fold | IC50 (casein kinase 1 (CK1)): 610 nM | Stability (concentration of QC samples remaining vs time zero) ([3]; plasma QC samples, 2 months at room temperature, +4°C or −20°C): approximately 97 ± 3.5% | Time for which stable ([3]; room temperature, in both solution and plasma): 2 months | IC50 (tumor cell lines; different cell lines, read-out: Optimal concentration for pharmacological effect in-vitro in different cell lines (reported average IC50)): ~700 nM and 700 nM | Anti-tumor IC50 values found in-vitro (tumor cell lines; in-vitro, reference not given): 0.3 µg/mL

CC[C@H](CO)Nc1nc(NCc2ccccc2)c2ncn(C(C)C)c2n1 [roscovitine]
Reported half-life [4]: approximately 1 hour | Distribution to bone marrow [5]: 1.5%
